Data from publication PMC8187479, “Sugar phosphate activation of the stress sensor eIF2B” (Nature Communications, 2021).

Each molecule was assayed against T1, eIF2Bα (Homo sapiens, UniProt Q14232) (assay: MIDAS (mass spectrometry integrated with equilibrium dialysis) metabolite binding screen). Conditions: MIDAS metabolite binding screen with eIF2Bα; sheet "eIF2Ba".
T1 construct: made in house; host or cells: E. coli BL21(DE3)
T1 sequence (Q14232 1-305): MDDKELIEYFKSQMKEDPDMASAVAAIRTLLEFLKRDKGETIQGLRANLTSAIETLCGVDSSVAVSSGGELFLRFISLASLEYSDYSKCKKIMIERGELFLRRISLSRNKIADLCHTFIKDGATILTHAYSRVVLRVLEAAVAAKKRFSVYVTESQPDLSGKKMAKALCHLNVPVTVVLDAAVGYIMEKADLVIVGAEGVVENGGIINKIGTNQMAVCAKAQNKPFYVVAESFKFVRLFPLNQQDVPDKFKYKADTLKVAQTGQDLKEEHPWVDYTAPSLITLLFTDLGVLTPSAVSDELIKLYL
Protocol: Metabolites were combined into four defined screening pools. […] To the reverse side, 300 μL of 50 μM per metabolite pool was aliquoted and sealed (metabolite chamber). Loaded dialysis plates were placed in the dark at 4 °C on a rotating shaker (120 rpm) and incubated for 40 h. Post-dialysis, metabolites were isolated from each chamber by cold methanol extraction. Each sample was analyzed in technical triplicate by FIA-MS on a SCIEX X500R QTOF MS with interspersed blanks injections. The input metabolite pools were assayed at the beginning, middle, and end of each MS method batch for QC and normalization.
MIDAS FIA-MS spectra were processed in SCIEX OS 1.6 software to determine metabolite abundances by integrating the mean area under the curve for each extracted ion chromatogram. For each dialysis replicate, log2(fold change) for each metabolite was calculated as the difference between the log2 abundance in the protein chamber and metabolite chamber. For each technical triplicate, up to one outlier was removed using a z-score cutoff of five (<0.1% of observations). The corrected technical replicates were collapsed to one mean fold-change summary per protein-metabolite pair. To remove fold-change variation that was not specific to a given metabolite-protein pair, the first three principal components of the total screening dataset were removed on a per metabolite pool basis by subtracting the projection of the first 3 principal components, creating log2(corrected fold change). Protein-metabolite z-scores were determined by comparing the target protein-metabolite log2(corrected fold change) to a no-signal model for that metabolite using measures of the central tendency (median) and standard deviation (extrapolated from the 25–75% quantiles), which are robust to the signals in the tails of a metabolite’s fold-change distribution. Z-scores were false-discovery rate controlled using Storey’s q-value (qvalue, R) and protein-metabolite interactions with q-values < 0.1 were considered significant.

Compound | log2(corrected fold change)
Nc1ncnc2c1ncn2[C@@H]1O[C@H](COP(=O)(O)OS(=O)(=O)O)[C@@H](OP(=O)(O)O)[C@H]1O [3-Phosphoadenosine 5-phosphosulfate] | -0.003179
O=C(O)CC(O)CC(=O)O [3-hydroxypentanedioic acid] | -0.0058
CC(C)C(=O)C(=O)O [3-methyl-2-oxobutyrate] | -0.0499
CC(=O)CC(=O)CCC(=O)O [4,6-Dioxoheptanoic acid] | -0.02657
NCCCC(=O)O [4-Aminobutanoate] | 0.0213
O=C(O)CNC(=O)Cc1ccc(O)cc1 [4-Hydroxyphenylacetylglycine] | -0.008576
O=C(O)Cc1cnc[nH]1 [4-Imidazoleacetic acid] | 0.01796
Cc1ncc(CO)c(C(=O)O)c1O [4-Pyridoxic acid] | 0.06772
CN1c2c(nc(N)[nH]c2=O)NCC1CNc1ccc(C(=O)N[C@@H](CCC(=O)O)C(=O)O)cc1 (some centres unmarked) [5-Methyltetrahydrofolic acid] | 0.02128
Cc1cn([C@@H]2O[C@H](CO)[C@@H](O)[C@H]2O)c(=O)[nH]c1=O [5-Methyluridine] | 0.07915
O=P(O)(O)OCC1OC(OP(=O)(O)OP(=O)(O)O)C(O)C1O [5-Phospho-D-ribose 1-diphosphate] | 0.1645
C[C@H](O)[C@@H](O)[C@@H](O)[C@H](O)C(=O)O [6-Deoxy-L-galactonic acid] | -0.02256
N[C@@H](C[C@@H](O)C(=O)O)C(=O)O [(4R)-4-Hydroxy-L-glutamic acid] | -0.03114
CC(=O)NCC(=O)O [Acetylamino-acetic acid] | 0.03921
Nc1ncnc2c1ncn2[C@@H]1O[C@H](COP(=O)(O)OP(=O)(O)OP(=O)(O)O)[C@@H](O)[C@H]1O [Adenosine triphosphate] | 0.05437
Nc1ncnc2c1ncn2[C@@H]1O[C@H](CO)[C@@H](O)[C@H]1O [Adenosine] | 0.2973
Nc1ncnc2c1ncn2[C@@H]1O[C@H](COP(=O)(O)OP(=O)(O)NP(=O)(O)O)[C@@H](O)[C@H]1O [Adenyl imidodiphosphate] | -0.08962
OC[C@@H](O)[C@@H](O)[C@@H](O)CO [Adonitol] | 0.006339
Cn1cncc1C[C@H](NC(=O)CCN)C(=O)O [Anserine] | -0.02715
O=C1O[C@H]([C@@H](O)CO)C(O)=C1O [Ascorbate] | 0.01654
NCCC(=O)O [Beta-alanine] | 0.0004222
N[C@@H](CCCCNC(=O)CCCC[C@@H]1SC[C@@H]2NC(=O)N[C@@H]21)C(=O)O [Biocytin] | -0.00281
CCCC(=O)SCCNC(=O)CCNC(=O)[C@H](O)C(C)(C)COP(=O)(O)OP(=O)(O)OC[C@H]1O[C@@H](n2cnc3c(N)ncnc32)[C@H](O)[C@@H]1OP(=O)(O)O [Butyryl coenzyme A] | 0.07019
Nc1ccn([C@@H]2O[C@H](COP(=O)(O)OP(=O)(O)OCC(O)CO)[C@@H](O)[C@H]2O)c(=O)n1 (some centres unmarked) [CDP-Glycerol] | 0.002705
NCCOP(=O)(O)OP(=O)(O)OC[C@H]1O[C@@H](n2ccc(N)nc2=O)[C@H](O)[C@@H]1O [CDP-ethanolamine] | -0.00979
C[N+](C)(C)CCOP(=O)([O-])OC[C@H](O)CO [Choline glycerophosphate] | -0.09086

Same assay, conditions: MIDAS screen, sheet eIF2Ba; metabolites screened in pools 1-4; p-value and q-value given

Compound | log2(corrected fold change)
O=C(O)C(=O)CS(=O)(=O)O [3-Sulfopyruvic acid] | -0.112
NC(=O)NCCC(=O)O [3-Ureidopropionic acid] | 0.07649
N=C(N)NCCCC(=O)O [4-Guanidinobutyric acid] | 0.2552
O=C(O)C(=O)CC(O)C(=O)O (centres unmarked) [4-Hydroxy-2-oxoglutaric acid] | -0.1985
O=C(O)c1ccc(O)cc1 [4-Hydroxybenzoic acid] | 0.1295
O=C(O)Cc1ccc(O)cc1 [4-Hydroxyphenylacetic acid] | -0.07366
O=C(O)C=Cc1c[nH]cn1 [4-Imidazoleacrylic acid] | -0.125
CC(C)CC(=O)C(=O)O [4-Methyl-2-oxovaleric acid] | -0.05419
CSCCC(=O)C(=O)O [4-Methylthio-2-oxobutanoic acid] | 0.0884
O=C(O)CCCc1ccccc1 [4-Phenylbutanoic acid] | 0.03839
N[C@@H](Cc1c[nH]c2ccc(O)cc12)C(=O)O [5-Hydroxy-L-tryptophan] | -0.8537
COc1ccc2[nH]cc(CC(=O)O)c2c1 [5-Methoxy-3-indoleacetic acid] | -0.03075
COc1ccc2[nH]cc(CCN)c2c1 [5-Methoxytryptamine] | 0.274
O=C(O)[C@H](O)[C@@H](O)[C@H](O)[C@H](O)COP(=O)(O)O [6-Phosphogluconic acid] | -0.1601
C[C@@H](O)CC(=O)O [(R)-3-Hydroxybutyric acid] | -0.1099
C[C@H](CO)C(=O)O [(R)-Hydroxyisobutyrate] | 0.07137
C[C@H](O)CC(=O)O [(S)-3-Hydroxybutyric acid] | 0.07137

Compound | log2(corrected fold change)
C[C@@H](CO)C(=O)O [(S)-Hydroxyisobutyrate] | 0.07137
NC(=O)c1ncn([C@@H]2O[C@H](CO)[C@@H](O)[C@H]2O)c1N [AICAR] | 0.005355
CC(=O)CC(=O)O [Acetoacetate] | -0.05529
CC(=O)CC(=O)SCCNC(=O)CCNC(=O)[C@H](O)C(C)(C)COP(=O)(O)OP(=O)(O)OC[C@H]1O[C@@H](n2cnc3c(N)ncnc32)[C@H](O)[C@@H]1OP(=O)(O)O [Acetoacetyl coenzyme A] | 0.4297
CC(=O)SCCNC(=O)CCNC(=O)[C@H](O)C(C)(C)COP(=O)(O)OP(=O)(O)OC[C@H]1O[C@@H](n2cnc3c(N)ncnc32)[C@H](O)[C@@H]1OP(=O)(O)O [Acetyl coenzyme A] | -0.09022
CC(=O)OCC[N+](C)(C)C [Acetylcholine] | -0.07879
Nc1ncnc2[nH]cnc12 [Adenine] | -0.2309
O=C(O)C[C@H](Nc1ncnc2c1ncn2[C@@H]1O[C@H](COP(=O)(O)O)[C@@H](O)[C@H]1O)C(=O)O [Adenylosuccinic acid] | -0.03472
NCCCCN=C(N)N [Agmatine] | 0.1363
Nc1ccccc1C(=O)O [Anthranilate] | -0.04243
C[N+](C)(C)CC=O [Betaine aldehyde hydrate] | -0.08887
C[N+](C)(C)CC=O [Betaine aldehyde] | -0.1426
C[N+](C)(C)CC(=O)O [Betaine] | 0.2268
NCCCCCN [Cadaverine] | 0.2219
C[N+](C)(C)CC(O)CC(=O)[O-] (centres unmarked) [Carnitine] | -0.03799
C[N+](C)(C)CCO [Choline] | -0.1774
